Assay results: US5990179A, “Composition and method of enhancing electrotransport agent delivery” (ALZA Corporation, priority 1995, dated 1999)

Tests used:
[1] = transdermal flux of lidocaine and epinephrine from gel formulations 14 and 15 (Example 3); details: formulation 14 (pH 3.68) vs 15 (pH 6.42); samples at 10, 30, 60 and 90 minutes
Method: The formulation 14 and 15 gels were subjected to transdermal flux experiments using heat stripped chest and breast skin from human cadavers using the electrotransport permeation cell described in Example 2 and FIG. 3. Measurements were taken from the receptor compartment of the cell at 10 minutes, 30 minutes, 60 minutes, and 90 minutes after start of application of electrotransport current.

[2] = pH of lidocaine donor solutions of varying base:salt ratio (Example 1); type: physicochemical
Method: Two identical experiments were conducted at pHs 4.95 and 7.35, one at pH 6.85, and three at pH 6.25.

| SMILES | transdermal flux, formulation 14 versus 15 [1] | pH ([2]; 0 mmoles lidocaine base, 199 mmoles lidocaine HCl) | pH ([2]; 2.1 mmoles lidocaine base, 195 mmoles lidocaine HCl) | pH ([2]; 6.0 mmoles lidocaine base, 191 mmoles lidocaine HCl) | pH ([2]; 20.3 mmoles lidocaine base, 179 mmoles lidocaine HCl) |
| --- | --- | --- | --- | --- | --- |
| CNC[C@H](O)c1ccc(O)c(O)c1 [epinephrine] | did not have a significant statistical difference between formulation 14 and 15 |  |  |  |  |
| CCN(CC)CC(=O)Nc1c(C)cccc1C [lidocaine] |  | 4.95 | 6.25 | 6.85 | 7.35 |
